Test results taken from US8815900B2, “Compounds and compositions for reducing lipid levels” (CVI Pharmaceuticals Limited, priority 2007, dated 2014).
Structures can show the parent of a compound that is named as a salt.

Key:
[1] = tested on: LDLR mRNA expression in HepG2 cells; assay: LDLR mRNA expression in HepG2 cells, semi-quantitative RT-PCR; type: cell-based, Human; settings: 8 hours, indicated doses, corrected by GAPDH mRNA (FIG. 3)
Procedure: HepG2 cells obtained from American Tissue Culture Collection (Manassas, Va., USA) were seeded in 6-well culture plates at a density of 0.8×10^6 cells/well cultured in EMEM containing 0.5% FBS and were treated with each purified compound at indicated doses for 8 hours. Total RNA was isolated, and 2 μg per sample was reverse transcribed with random primers using M-MLV (Promega) at 37° C. for 1 hour. PCR was carried out at 94° C. for 30 sec, 60° C. for 30 sec, and 72° C. for 30 sec with initial activation of the enzyme at 94° C. for 1 minute. Thirty cycles were performed for LDLR and GAPDH. PCR was performed using primers HLDLR-up and HLDLR-lo for LDLR and primers HGAPDH-up and HGAPDH-lo for GAPDH. The PCR products were separated on a 1% agarose gel and the band intensity was quantitated. LDLR mRNA levels were corrected by measuring GAPDH mRNA levels.
After the treatment, a portion of cells was harvested for total RNA, and another portion of cells was used for TG measurement. The LDLR mRNA levels were assessed by semi quantitative RT-PCR, and the cellular TG content was determined as described above.

[2] = tested on: LDLR ligand uptake activity in HepG2 cells; assay: DiI-LDL uptake (LDLR ligand uptake activity) in HepG2 cells; type: cell-based, Human; settings: 20 hours; also: key: +: slightly increased fluorescent intensity over control; ++: modestly increased fluorescent intensity over control; +++: strongly increased fluorescent intensity over control
Procedure: HepG2 cells (2×10^5 cells/well) in 24-well culture plates were treated with various compounds at indicated concentrations for 20 hours. The fluorescent 1,1′-dioctadecyl-3,3,3′,3′-tetramethylindocarbocyanin perchlorate (DiI-LDL) (Biomedical Technologies, Stoughton, Mass.) at a concentration of 2 μg/mL was added to cells at the end of treatment. After 4 hours, the medium was removed, cells were washed with cold PBS, and were examined immediately under a fluorescent microscope (Nikon) at 200× amplification. The fluorescent intensity in compound-treated cells was compared to that in untreated control cells. […] In these experiments berberine chloride was used for comparison.

[3] = tested on: hypercholesterolemic hamsters; assay: In vivo lipid lowering of (14R)-THP in hamsters on high cholesterol diet; set-up: species or system Golden Syrian male hamsters; settings: 12 mg/kg daily i.p., 34 days
Description: To determine whether the induction of hepatic LDLR expression by corydalis-derived compounds would result in total cholesterol (TC) and LDL-cholesterol (LDL-c) reductions in plasma, hypercholesterolemic hamsters were used as an animal model. In one experiment, 10 Golden Syrian male hamsters under a high cholesterol (HC) diet were divided into 2 groups.

[4] = tested on: LDLR mRNA expression in HepG2 cells; assay: LDLR mRNA expression in HepG2 cells, quantitative real-time RT-PCR; type: cell-based, Human; settings: 24 hours; for Activity on LDLR mRNA expression (Fold of control): dose less than or equal to 10 μM
Procedure: In yet another experiment, HepG2 cells were treated with various compounds for 24 hours at the indicated doses. Total RNA was isolated and 2 μg was used to generate cDNA in a reaction containing random primers and M-MLV at 37° C. for 1 hour in a volume of […] Real-time PCR was performed on the cDNA using MCEP REALPLEX 2 SYSTEM (Eppendorf) and Universal MasterMix (Applied Biosystems). Human LDLR and GAPDH Pre-Developed TaqMan Assay Reagents (Applied Biosystems) were used to assess the levels of mRNA expressions in HepG2. The levels of LDLR mRNA were normalized to that of GAPDH. Each RNA samples was assayed in triplicate. The abundance of LDLR mRNA in untreated cells was defined as 1, and the amounts of LDLR mRNA from compound-treated cells were plotted relative to that value in FIG. 13. The data shown are mean±s.d.
Activities of some compounds of Formulas I, II, III, and IV on LDLR mRNA expression were determined. HepG2 cells were treated with new compounds individually at a dose less than or equal to 10 μM for 24 hours. Total RNA was harvested for quantitative real-time RT-PCR analysis using the method described in Example 16B. […] In these experiments, berberine chloride was included for comparison.
Quantitative real-time RT-PCR was conducted, and triplicate was assayed in each RNA sample. The data are mean value of triplicates.
Total RNA was harvested for quantitative real-time RT-PCR analysis using method described in Examples 16B.

[5] = tested on: Wister male rats under a high fat and high cholesterol diet; assay: Lipid lowering and body weight effects of (14R,13S)-CRDL hydrochloride salt in Wister rats; type: in vivo
Procedure: Male Wister rats were used as another animal model to examine the in vivo effects of (14R,13S)-CRDL in plasma lipid levels.
In one experiment, 18 Wister male rats under a high fat and high cholesterol diet were divided into 2 groups. One group was given (14R,13S)-CRDL hydrochloride salt orally at a daily dose of 75 mg/kg by an orogastric tube for 4 weeks, and the control group received daily treatment of equal amount of vehicle (0.1 M sodium phosphate, pH 3.5). Serum lipid levels were measured weekly.
At the end of treatment, Rats were sacrificed and blood and sera were collected to measure several critical parameters for liver function and kidney function. […] Kidney function and blood glucose level were not changed by the treatment (FIG. 11E).
The food intake and body weight gains were measured every week during the 4-week treatment period. […] In the first week, the amount of food consumed was decreased in CRDL-treated group. […] The ability of CRDL to activate AMPK signaling pathway to increase energy expenditure and to reduce fat accumulation likely contributes to this weight reducing effect.

[6] = Stability of compound 69 under cell culture conditions (LC-MS of medium); type: in vitro ADME; settings: HepG2 culture medium, 20 μM
Procedure: HepG2 cells were cultured in 6-well cell culture plate in EMEM containing 0.5% FBS overnight. Compound 69+ was added to the culture medium to a final concentration of 20 μM. Medium was collected at 0 (control), 4, 8, or 24 hours after the compound addition.
The collected media were analyzed by LC-MS on a Thermo Fisher Scientific Surveyor HPLC system and LCQ ion trap MS with electrospray ionization source. A 50×2.1 mm Hypersil Gold C18 3 um column was used with a flow rate of 200 uL/min. The method conditions were 98% A (0.1% formic acid in water)/2% B (0.1% formic acid in acetonitrile) then a gradient to 95% B in 10 minutes. The injection volume was 10 uL.

[7] = HC diet, compared to untreated control group
[8] = (14R,13S)-CRDL hydrochloride salt orally 75 mg/kg daily, 4 weeks
[9] = end of 4-week treatment, 75 mg/kg daily orally

COc1cc2c(cc1O)CCN1Cc3c(ccc(OC)c3OC)CC21 (stereo not drawn) [14R-(+)-CRPM, 14R-(+)-corypalmine]
LDLR mRNA expression [1]: potent and dose-dependent effects
Activity on DiI-LDL uptake ([2]; A, compound dose ≦ 10 μM): ++

COc1cc2c(cc1OC)[C@H]1Cc3ccc(OC)c(OC)c3CN1CC2 [14R-(+)-THP, 14R-(+)-tetrahydropalmatine]
adverse effects during the treatment period [3]: No adverse effects were observed
reduction of plasma TC [3, 7]: 31.6%
reduction of plasma TG [3, 7]: 35.93%
reduction of plasma non-HDL-c [3, 7]: 35.95%
gains of body weight during the treatment period ([3]; vs control group): very similar
LDLR mRNA expression [1]: potent and dose-dependent effects
LDLR mRNA expression, combined with statins ([4]; added to low dose simvastatin or fluvastatin (FIG. 17)): further improved the stimulatory effects of statins
Activity on DiI-LDL uptake ([2]; B, compound dose ≦ 40 μM): ++

COc1cc2c(cc1OC)[C@H]1[C@@H](C)c3ccc(OC)c(OC)c3CN1CC2 [Compound 6, (13S,13aR)-2,3,9,10-tetramethoxy-13-methyl-5,6,7,8,13,13a-hexahydroiso-quinolino[2,1-b]isoquinoline hydrochloride]
LDL-c level, % of control [5, 8]: 25.6%
LDL-c level, % of day 0 [5, 8]: 22.4%
TC, % compared to the control group [5, 8]: 33.8%
TC, % of the pretreatment level [5, 8]: 33.0%
TG level, % of the control [5, 8]: 29%
TG level, % of the pretreatment level (day 0) [5, 8]: 27%
blood glucose level [5, 9]: not changed
kidney function (BUN, CREA) [5, 9]: not changed

COc1ccc2c(c1O)CN1CCc3cc4c(cc3C1C2)OCO4 (stereo not shown) [Compound 34, 10-methoxy-5,6,7,8,13,13a-hexahydro-2H-1,3-dioxolano[4,5-g]isoquinolino[3,2-a]isoquinolin-9-ol]
Activity on LDLR mRNA expression (Fold of control) [4]: 1.76 ± 0.17 Fold of control
Activity on DiI-LDL uptake ([2]; A, compound dose ≦ 10 μM): ++

COc1ccc2c(c1OC(=O)NC(C)C)CN1CCc3cc4c(cc3C1C2)OCO4 (stereo not shown) [Compound 41, (10-methoxy (5,6,7,8,13,13a-hexahydro-2H-1,3-dioxolano[4,5-g]isoquinolino[3,2-a]isoquinolin-9-yloxy))-N-(methylethyl) carboxamide]
Activity on LDLR mRNA expression (Fold of control) [4]: 1.60 ± 0.03 Fold of control
Activity on DiI-LDL uptake ([2]; A, compound dose ≦ 10 μM): ++

COc1ccc2c(c1OC(=O)N(C)C)CN1CCc3cc4c(cc3C1C2)OCO4 (stereo not shown) [Compound 43, (10-methoxy (5,6,7,8,13,13a-hexahydro-2H-1,3-dioxolano[4,5-g]isoquinolino[3,2-a]isoquinolin-9-yloxy))-N,N-dimethylcarboxamide]
Activity on LDLR mRNA expression (Fold of control) [4]: 1.95 ± 0.18 Fold of control
Activity on DiI-LDL uptake ([2]; A, compound dose ≦ 10 μM): ++

COc1ccc2c(c1OC(=O)Nc1ccc(OC(F)(F)F)cc1)CN1CCc3cc4c(cc3C1C2)OCO4 (stereo not shown) [Compound 44, (10-methoxy (5,6,7,8,13,13a-hexahydro-2H-1,3-dioxolano[4,5-g]isoquinolino[3,2-a]isoquinolin-9-yloxy))-N-[4-(trifluoromethoxy)phenyl]car-boxamide]
Activity on LDLR mRNA expression (Fold of control) [4]: 2.20 ± 0.06 Fold of control
Activity on DiI-LDL uptake ([2]; A, compound dose ≦ 10 μM): ++

COc1cc(NC(=O)Oc2c(OC)ccc3c2CN2CCc4cc5c(cc4C2C3)OCO5)cc(OC)c1 (stereo not shown) [Compound 45, N-(3,5-dimethoxyphenyl) (10-methoxy (5,6,7,8,13,13a-hexahydro-2H-1,3-dioxolano[4,5-g]isoquinolino[3,2-a]isoquinolin-9-yloxy)) carboxamide]
Activity on LDLR mRNA expression (Fold of control) [4]: 2.09 ± 0.11 Fold of control
Activity on DiI-LDL uptake ([2]; A, compound dose ≦ 10 μM): ++

COc1ccc2c(c1OC(=O)Nc1cccc(C)c1)CN1CCc3cc4c(cc3C1C2)OCO4 (stereo not shown) [Compound 46, (10-methoxy (5,6,7,8,13,13a-hexahydro-2H-1,3-dioxolano[4,5-g]isoquinolino[3,2-a]isoquinolin-9-yloxy))-N-(3-methylphenyl) carboxamide]
Activity on LDLR mRNA expression (Fold of control) [4]: 1.80 ± 0.16 Fold of control
Activity on DiI-LDL uptake ([2]; A, compound dose ≦ 10 μM): ++

CCOC(=O)Oc1c(OC)ccc2c1CN1CCc3cc4c(cc3C1C2)OCO4 (stereo not shown) [Compound 48, 10-methoxy-5,6,7,8,13,13a-hexahydro-2H-1,3-dioxolano[4,5-g]isoquinolino[3,2-a]isoquinolin-9-yl ethoxyformate]
Activity on LDLR mRNA expression (Fold of control) [4]: 1.45 ± 0.15 Fold of control

COc1ccc2c(c1OC(=O)Nc1ccccc1)CN1CCc3cc4c(cc3C1C2)OCO4 (stereo not shown) [Compound 61, (10-methoxy (5,6,7,8,13,13a-hexahydro-2H-1,3-dioxolano[4,5-g]isoquinolino[3,2-a]isoquinolin-9-yloxy))-N-benzamide]
Activity on LDLR mRNA expression (Fold of control) [4]: 1.33 ± 0.53 Fold of control

COc1ccc2c(c1OS(=O)(=O)c1ccccc1)CN1CCc3cc4c(cc3C1C2)OCO4 (stereo not shown) [Compound 69, 9-benzene-sulfonyloxy-10-methoxy-5,8,13,13a-tetrahydro-6H-[1,3]dioxolo[4,5-g]isoquino[3,2-a] isoquinoline]
stability under cell culture conditions ([6]; up to 24 hours): fairly stable
Peak Area m/z 466.1 ([6]; 0 hours (control)): 2.38e8
Peak Area m/z 466.1 ([6]; 4 hours): 9.67e7
Peak Area m/z 466.1 ([6]; 8 hours): 9.22e7
Peak Area m/z 466.1 ([6]; 24 hours): 7.03e7

CN1CCc2cc3c(cc2[C@H]1[C@@H]1O[C@H](O)c2c1ccc1c2OCO1)OCO3 [d-(+)-EGN, (+)-egenine]
Activity on DiI-LDL uptake ([2]; A, compound dose ≦ 10 μM): +

(+)-corlumidin [(+)-CLMD]
LDLR mRNA expression [1]: potent and dose-dependent effects
Activity on DiI-LDL uptake ([2]; B, compound dose ≦ 40 μM): +
